These results are taken from patent publication US10239873B2, “7-azaindole or 4,7-diazaindole derivatives as IKKϵ epsilon and TBK1 inhibitor and pharmaceutical composition comprising same” (GREEN CROSS CORPORATION, priority 2015, dated 2019).

Structures are written as SMILES. Bounds are passed on as bounds.

In the test the target is T1, TBK1 (Homo sapiens, UniProt Q9UHD2).
T1 construct: purchased Promega (Invitrogen is also named in the same bracket) V4158; PR8031B; V3991 (not assigned to the two kinases)
T1 sequence (Q9UHD2 1-729): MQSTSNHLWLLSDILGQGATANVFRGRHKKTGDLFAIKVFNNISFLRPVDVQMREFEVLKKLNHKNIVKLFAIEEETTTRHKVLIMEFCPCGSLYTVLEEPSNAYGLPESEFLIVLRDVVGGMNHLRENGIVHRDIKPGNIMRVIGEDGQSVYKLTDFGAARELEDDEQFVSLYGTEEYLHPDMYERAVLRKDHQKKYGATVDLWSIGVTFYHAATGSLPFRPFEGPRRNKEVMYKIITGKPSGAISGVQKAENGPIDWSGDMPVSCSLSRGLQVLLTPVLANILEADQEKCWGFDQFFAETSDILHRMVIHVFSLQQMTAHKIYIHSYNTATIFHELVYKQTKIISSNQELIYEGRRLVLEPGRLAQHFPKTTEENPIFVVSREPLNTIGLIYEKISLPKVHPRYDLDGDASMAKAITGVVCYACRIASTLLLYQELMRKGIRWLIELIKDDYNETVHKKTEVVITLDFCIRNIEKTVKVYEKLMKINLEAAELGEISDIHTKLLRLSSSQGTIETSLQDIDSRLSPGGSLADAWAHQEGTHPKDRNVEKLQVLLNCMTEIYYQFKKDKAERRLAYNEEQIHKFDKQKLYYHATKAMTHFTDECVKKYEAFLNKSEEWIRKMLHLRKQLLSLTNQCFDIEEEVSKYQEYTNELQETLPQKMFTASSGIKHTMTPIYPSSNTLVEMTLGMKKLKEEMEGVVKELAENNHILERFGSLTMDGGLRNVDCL
In words: ADP-Glo Kinase Assay, inhibition activity on TBK1. It counts as biochemical. An outline of the steps: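 In 40 mM Tris pH 7.5 with 20 mM MgCl2 and 0.1 mg/mL BSA, each enzyme (IKKε or TBK1 kinase system) was run according to the manufacturer's protocol. ADP formed was detected by ADP-Glo luminescence.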
For orientation: ADP-Glo first removes unused ATP, then detects ADP through luciferase.
Turning to `O=C(c1cccs1)N1CC=C(c2c[nH]c3ncc(-c4ccc(CN5CCOCC5)s4)cc23)CC1` [Example 206, (4-(5-(5-(morpholinomethyl)thiophen-2-yl)-1H-pyrrolo[2,3-b]pyridin-3-yl)-5,6-dihydropyridin-1(2H)-yl)(thiophen-2-yl)methanone], the 50% inhibitory concentration (IC50) was 49 nM.
The value for `O=C(c1cccs1)N1CC=C(c2c[nH]c3ncc(-c4csc(CN5CCOCC5)c4)cc23)CC1` [Example 207, (4-(5-(5-(morpholinomethyl)thiophen-3-yl)-1H-pyrrolo[2,3-b]pyridin-3-yl)-5,6-dihydropyridin-1(2H)-yl)(thiophen-2-yl)methanone] was 48 nM.
`O=C(c1cccc(-c2cnc3[nH]cc(C4=CCN(C(=O)c5cccs5)CC4)c3c2)c1)N1CCOCC1` [Example 208, (4-(5-(3-(morpholine-4-carbonyl)phenyl)-1H-pyrrolo[2,3-b]pyridin-3-yl)-5,6-dihydropyridin-1(2H)-yl)(thiophen-2-yl)methanone] showed an IC50 of 190 nM.
As to `COc1ccc(-c2cnc3[nH]cc(C4=CCN(C(=O)c5ccc(C)s5)CC4)c3c2)cc1OC` [Example 210, (4-(5-(3,4-dimethoxyphenyl)-1H-pyrrolo[2,3-b]pyridin-3-yl)-5,6-dihydropyridin-1(2H)-yl)(5-methylthiophen-2-yl)methanone], the IC50 turned out to be 3000 nM.
For the compound `Cc1ccc(C(=O)N2CC=C(c3c[nH]c4ncc(-c5ccc(S(C)(=O)=O)cc5)cc34)CC2)s1` [Example 211, (4-(5-(4-(methylsulfonyl)phenyl)-1H-pyrrolo[2,3-b]pyridin-3-yl)-5,6-dihydropyridin-1(2H)-yl)(5-methylthiophen-2-yl)methanone], the 50% inhibitory concentration (IC50) stood at 3500 nM.
The compound `Cc1ccc(C(=O)N2CC=C(c3c[nH]c4ncc(-c5ccc(S(N)(=O)=O)cc5)cc34)CC2)s1` [Example 212, 4-(3-(1-(5-methylthiophene-2-carbonyl)-1,2,3,6-tetrahydropyridin-4-yl)-1H-pyrrolo[2,3-b]pyridin-5-yl)benzensulfonamide] had an IC50 of 2600 nM.
Turning to `COc1ccc(-c2cnc3[nH]cc(C4=CCN(C(=O)c5cccs5)CC4C)c3c2)cc1OC` (centres unmarked) [Example 213, (4-(5-(3,4-dimethoxyphenyl)-1H-pyrrolo[2,3-b]pyridin-3-yl)-5-methyl-5,6-dihydropyridin-1(2H)-yl)(thiophen-2-yl)methanone], the 50% inhibitory concentration (IC50) was determined as 180 nM.
The same measure for `CC1CN(C(=O)c2cccs2)CC=C1c1c[nH]c2ncc(-c3ccc(S(C)(=O)=O)cc3)cc12` (centres unmarked) [Example 214, (5-methyl-4-(5-(4-(methylsulfonyl)phenyl)-1H-pyrrolo[2,3-b]pyridin-3-yl)-5,6-dihydropyridin-1(2H)-yl)(thiophen-2-yl)methanone]: 78 nM.
The same measure for `CC1CN(C(=O)c2cccs2)CC=C1c1c[nH]c2ncc(-c3ccc(C(=O)N4CCOCC4)cc3)cc12` (centres unmarked) [Example 215, (4-(3-(3-methyl-1-(thiophene-2-carbonyl)-1,2,3,6-tetrahydropyridin-4-yl)-1H-pyrrolo[2,3-b]pyridin-5-yl)phenyl)(morpholino)methanone]: 12 nM; for `CC1CN(C(=O)c2cccs2)CC=C1c1c[nH]c2ncc(-c3ccc(CN4CCOCC4)s3)cc12` (centres unmarked) [Example 216, (5-methyl-4-(5-(5-(morpholinomethyl)thiophen-2-yl)-1H-pyrrolo[2,3-b]pyridin-3-yl)-5,6-dihydropyridin-1(2H)-yl)(thiophen-2-yl)methanone]: 73 nM; for `CN(C(=O)N1CC=C(c2c[nH]c3ncc(-c4cccc(S(C)(=O)=O)c4)cc23)CC1)C1CCCC1` [Example 217, N-cyclopentyl-N-methyl-4-(5-(3-(methylsulfonyl)phenyl)-1H-pyrrolo[2,3-b]pyridin-3-yl)-5,6-dihydropyridine-1(2H)-carboxamide]: 360 nM.
On to `CN(C(=O)N1CC=C(c2c[nH]c3ncc(-c4cccc(S(N)(=O)=O)c4)cc23)CC1)C1CCCC1` [Example 218, N-cyclopentyl-N-methyl-4-(5-(3-sulfamoylphenyl)-1H-pyrrolo[2,3-b]pyridin-3-yl)-5,6-dihydropyridine-1(2H)-carboxamide], for which the IC50 is more than 10000 nM.
On to `CN(C(=O)N1CC=C(c2c[nH]c3ncc(-c4ccc(S(N)(=O)=O)cc4)cc23)CC1)C1CCCC1` [Example 219, N-cyclopentyl-N-methyl-4-(5-(4-sulfamoylphenyl)-1H-pyrrolo[2,3-b]pyridin-3-yl)-5,6-dihydropyridine-1(2H)-carboxamide], for which the IC50 is more than 10000 nM.
On to `COc1ccc(-c2cnc3[nH]cc(C4=CCN(C(=O)N(C)C5CCCC5)CC4)c3c2)cc1OC` [Example 220, N-cyclopentyl-4-(5-(3,4-dimethoxyphenyl)-1H-pyrrolo[2,3-b]pyridin-3-yl)-N-methyl-5,6-dihydropyridine-1(2H)-carboxamide], for which the IC50 was 1300 nM.
The compound `Cc1[nH]c2ncc(-c3ccc(S(N)(=O)=O)cc3)cc2c1C1=CCN(C(=O)NC2CCCC2)CC1` [Example 221, N-cyclopentyl-4-(2-methyl-5-(4-sulfamoylphenyl)-1H-pyrrolo[2,3-b]pyridin-3-yl)-5,6-dihydropyridine-1(2H)-carboxamide] came in with a concentration for half-maximal inhibition (IC50) of 2000 nM.
The value for `CNS(=O)(=O)c1ccc(-c2cnc3[nH]c(C)c(C4=CCN(C(=O)NC5CCCC5)CC4)c3c2)cc1` [Example 222, N-cyclopentyl-4-(2-methyl-5-(4-(N-methylsulfamoyl)phenyl)-1H-pyrrolo[2,3-b]pyridin-3-yl)-5,6-dihydropyridine-1(2H)-carboxamide] was 6800 nM; that for `Cc1[nH]c2ncc(-c3ccc(C(=O)N4CCOCC4)cc3)cc2c1C1=CCN(C(=O)NC2CCCC2)CC1` [Example 223, N-cyclopentyl-4-(2-methyl-5-(4-(morpholine-4-carbonyl)phenyl)-1H-pyrrolo[2,3-b]pyridin-3-yl)-5,6-dihydropyridine-1(2H)-carboxamide] was 1600 nM.
Turning to `COc1ccc(-c2cc3c(C4=CCN(C(=O)OC(C)(C)C)CC4)c[nH]c3nc2N)cc1OC` [Example 224, tert-butyl 4-(6-amino-5-(3,4-dimethoxyphenyl)-1H-pyrrolo[2,3-b]pyridin-3-yl)-5,6-dihydropyridine-1(2H)-carboxylate], the IC50 is more than 10000 nM.
The compound `CC(C)(C)OC(=O)N1CC=C(c2c[nH]c3nc(N)c(-c4ccc(CN5CCOCC5)s4)cc23)CC1` [Example 225, tert-butyl 4-(6-amino-5-(5-(morpholinomethyl)thiophen-2-yl)-1H-pyrrolo[2,3-b]pyridin-3-yl)-5,6-dihydropyridine-1(2H)-carboxylate] yielded an IC50 of more than 10000 nM.
The compound `COc1ccc(-c2cc3c(C4=CCN(C(=O)NC5CCCC5)CC4)c[nH]c3nc2N)cc1OC` [Example 226, 4-(6-amino-5-(3,4-dimethoxyphenyl)-1H-pyrrolo[2,3-b]pyridin-3-yl)-N-cyclopentyl-5,6-dihydropyridine-1(2H)-carboxamide] showed an IC50 of more than 10000 nM.
Take `Nc1nc2[nH]cc(C3=CCN(C(=O)NC4CCCC4)CC3)c2cc1-c1ccc(CN2CCOCC2)s1` [Example 227, 4-(6-amino-5-(5-(morpholinomethyl)thiophen-2-yl)-1H-pyrrolo[2,3-b]pyridin-3-yl)-N-cyclopentyl-5,6-dihydropyridine-1(2H)-carboxamide]: inhibition was half-maximal at 1500 nM (IC50).
The value for `O=C(NC1CCCC1)N1CC=C(c2c[nH]c3ncc(-c4ccc(CN5CCOCC5)s4)nc23)CC1` [Example 229, N-cyclopentyl-4-(2-(5-(morpholinomethyl)thiophen-2-yl)-5H-pyrrolo[2,3-b]pyrazin-7-yl)-5,6-dihydropyridine-1(2H)-carboxamide] was 66 nM; that for `COc1ccc(-c2cnc3[nH]cc(C4=CCN(C(=O)OC(C)(C)C)CC4)c3n2)cc1OC` [Example 230, tert-butyl 4-(2-(3,4-dimethoxyphenyl)-5H-pyrrolo[2,3-b]pyrazin-7-yl)-5,6-dihydropyridine-1(2H)-carboxylate] was 320 nM; that for `O=C(c1cccs1)N1CC=C(c2c[nH]c3ncc(-c4ccc(CN5CCOCC5)s4)nc23)CC1` [Example 233, (4-(2-(5-(morpholinomethyl)thiophen-2-yl)-5H-pyrrolo[2,3-b]pyrazin-7-yl)-5,6-dihydropyridin-1(2H)-yl)(thiophen-2-yl)methanone] was 40 nM.
The compound `CC(C)(C)OC(=O)N1CC=C(c2c[nH]c3ncc(-c4ccc(CN5CCOCC5)s4)nc23)CC1` [Example 234, tert-butyl 4-(2-(5-(morpholinomethyl)thiophen-2-yl)-5H-pyrrolo[2,3-b]pyrazin-7-yl)-5,6-dihydropyridine-1(2H)-carboxylate] gave an IC50 of 470 nM.
As for `COc1ccc(-c2cnc3[nH]cc(C4CCCN(C(=O)OC(C)(C)C)C4)c3c2)cc1OC` (centres unmarked) [Example 236, tert-butyl 3-(5-(3,4-dimethoxyphenyl)-1H-pyrrolo[2,3-b]pyridin-3-yl)piperidine-1-carboxylate], the IC50 is more than 10000 nM.

Usually IC50 stands for the concentration that inhibits the measured activity by half. Low values mean inhibition by little substance, high ones a need for much substance.
